Measurements from patent publication US12492188B2, “1H-benzo[D]imidazole derivatives as TLR9 inhibitors for the treatment of fibrosis” (BRISTOL-MYERS SQUIBB COMPANY, priority 2020, dated 2025).
Like-named read-outs stand apart in the source and are kept apart here.

Assays:
Type in all cases: cell-based
[1] = target: T1, human TLR9 (Homo sapiens, UniProt Q9NR96); test: TLR9 inhibition reporter assay (HEK-Blue cells, secreted embryonic alkaline phosphatase reporter)
T1 construct: host or cells: HEK-Blue cells (HEK293-derived reporter line)
T1 sequence (Q9NR96 26-1032): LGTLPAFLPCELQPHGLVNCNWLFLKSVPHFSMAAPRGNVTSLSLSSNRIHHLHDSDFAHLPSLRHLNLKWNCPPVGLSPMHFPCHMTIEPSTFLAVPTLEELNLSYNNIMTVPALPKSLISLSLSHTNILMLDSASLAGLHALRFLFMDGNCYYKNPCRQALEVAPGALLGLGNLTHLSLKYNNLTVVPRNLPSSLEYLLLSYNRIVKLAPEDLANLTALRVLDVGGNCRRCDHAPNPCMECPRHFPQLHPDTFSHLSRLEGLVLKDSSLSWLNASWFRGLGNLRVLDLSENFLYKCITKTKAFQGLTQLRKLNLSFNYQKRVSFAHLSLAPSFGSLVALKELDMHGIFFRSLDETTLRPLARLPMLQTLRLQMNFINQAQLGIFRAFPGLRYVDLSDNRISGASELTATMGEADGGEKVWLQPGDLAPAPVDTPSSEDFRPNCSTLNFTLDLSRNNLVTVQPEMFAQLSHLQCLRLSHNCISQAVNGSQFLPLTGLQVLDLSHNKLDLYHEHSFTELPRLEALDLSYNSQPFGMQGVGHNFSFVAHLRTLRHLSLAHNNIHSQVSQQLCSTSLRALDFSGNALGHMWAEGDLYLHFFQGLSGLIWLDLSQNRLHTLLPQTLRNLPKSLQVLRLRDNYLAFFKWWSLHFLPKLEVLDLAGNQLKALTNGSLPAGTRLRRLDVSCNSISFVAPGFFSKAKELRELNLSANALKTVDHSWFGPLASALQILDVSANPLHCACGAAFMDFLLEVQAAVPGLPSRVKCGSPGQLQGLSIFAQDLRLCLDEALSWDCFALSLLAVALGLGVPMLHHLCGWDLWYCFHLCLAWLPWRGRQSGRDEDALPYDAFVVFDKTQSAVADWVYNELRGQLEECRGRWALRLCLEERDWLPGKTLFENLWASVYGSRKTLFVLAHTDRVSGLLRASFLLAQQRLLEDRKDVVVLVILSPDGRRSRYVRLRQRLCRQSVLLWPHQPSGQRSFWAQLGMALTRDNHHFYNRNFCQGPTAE
Summary of the method: (§1)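 Read-out is SEAP colour from HEK-Blue Detection medium after 22 h at 37 °C, converted to percent inhibition between agonist-plus-DMSO and reference-inhibitor wells. Receptor-overexpressing HEK-Blue cells received compound over 0.05 nM–50 μM for 30 min before agonist: gardiquimod 7.5 μM for TLR7, R848 15.9 μM for TLR8, ODN2006 5 nM for TLR9.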

[2] = target: T2, human TLR8 (Homo sapiens, UniProt Q9NR97); test: TLR8 inhibition reporter assay (HEK-Blue cells, secreted embryonic alkaline phosphatase reporter); details: HEK-Blue cells overexpressing human TLR8, stimulated with R848 15.9 μM; read-out: TLR 8 IC50
T2 construct: host or cells: HEK-Blue cells (HEK293-derived reporter line)
T2 sequence (Q9NR97 27-1041): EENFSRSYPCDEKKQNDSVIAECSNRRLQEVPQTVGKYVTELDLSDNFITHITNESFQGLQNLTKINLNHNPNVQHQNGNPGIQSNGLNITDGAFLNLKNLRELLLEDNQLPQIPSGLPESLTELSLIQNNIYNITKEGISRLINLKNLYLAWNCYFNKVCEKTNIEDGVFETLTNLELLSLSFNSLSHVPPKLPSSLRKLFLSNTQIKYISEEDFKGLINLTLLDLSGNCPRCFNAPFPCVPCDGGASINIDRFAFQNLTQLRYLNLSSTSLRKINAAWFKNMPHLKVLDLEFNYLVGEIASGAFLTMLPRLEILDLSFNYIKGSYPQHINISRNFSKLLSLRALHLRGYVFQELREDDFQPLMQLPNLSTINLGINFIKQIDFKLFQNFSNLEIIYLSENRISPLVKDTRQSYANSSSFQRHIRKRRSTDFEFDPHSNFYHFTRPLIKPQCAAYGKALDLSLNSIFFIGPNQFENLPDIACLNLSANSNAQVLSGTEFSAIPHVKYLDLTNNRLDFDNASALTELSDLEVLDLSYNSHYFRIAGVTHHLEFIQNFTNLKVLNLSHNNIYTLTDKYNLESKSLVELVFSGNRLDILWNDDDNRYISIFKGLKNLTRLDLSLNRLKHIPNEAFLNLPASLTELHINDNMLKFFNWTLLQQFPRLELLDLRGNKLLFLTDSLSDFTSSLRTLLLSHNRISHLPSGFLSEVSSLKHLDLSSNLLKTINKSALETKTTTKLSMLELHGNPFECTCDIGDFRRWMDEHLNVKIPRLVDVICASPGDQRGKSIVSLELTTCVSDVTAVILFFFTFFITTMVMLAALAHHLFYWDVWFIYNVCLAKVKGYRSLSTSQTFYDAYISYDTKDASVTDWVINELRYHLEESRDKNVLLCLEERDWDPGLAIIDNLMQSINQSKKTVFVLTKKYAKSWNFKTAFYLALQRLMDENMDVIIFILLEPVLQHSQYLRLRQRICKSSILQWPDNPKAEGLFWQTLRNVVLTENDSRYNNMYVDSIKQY
Summary of the method: as §1

[3] = target: T3, human TLR7 (Homo sapiens, UniProt Q9NYK1); test: TLR7 inhibition reporter assay (HEK-Blue cells, secreted embryonic alkaline phosphatase reporter); details: HEK-Blue cells overexpressing human TLR7, stimulated with gardiquimod 7.5 μM; read-out: TLR 7 IC50
T3 construct: host or cells: HEK-Blue cells (HEK293-derived reporter line)
T3 sequence (Q9NYK1 27-1049): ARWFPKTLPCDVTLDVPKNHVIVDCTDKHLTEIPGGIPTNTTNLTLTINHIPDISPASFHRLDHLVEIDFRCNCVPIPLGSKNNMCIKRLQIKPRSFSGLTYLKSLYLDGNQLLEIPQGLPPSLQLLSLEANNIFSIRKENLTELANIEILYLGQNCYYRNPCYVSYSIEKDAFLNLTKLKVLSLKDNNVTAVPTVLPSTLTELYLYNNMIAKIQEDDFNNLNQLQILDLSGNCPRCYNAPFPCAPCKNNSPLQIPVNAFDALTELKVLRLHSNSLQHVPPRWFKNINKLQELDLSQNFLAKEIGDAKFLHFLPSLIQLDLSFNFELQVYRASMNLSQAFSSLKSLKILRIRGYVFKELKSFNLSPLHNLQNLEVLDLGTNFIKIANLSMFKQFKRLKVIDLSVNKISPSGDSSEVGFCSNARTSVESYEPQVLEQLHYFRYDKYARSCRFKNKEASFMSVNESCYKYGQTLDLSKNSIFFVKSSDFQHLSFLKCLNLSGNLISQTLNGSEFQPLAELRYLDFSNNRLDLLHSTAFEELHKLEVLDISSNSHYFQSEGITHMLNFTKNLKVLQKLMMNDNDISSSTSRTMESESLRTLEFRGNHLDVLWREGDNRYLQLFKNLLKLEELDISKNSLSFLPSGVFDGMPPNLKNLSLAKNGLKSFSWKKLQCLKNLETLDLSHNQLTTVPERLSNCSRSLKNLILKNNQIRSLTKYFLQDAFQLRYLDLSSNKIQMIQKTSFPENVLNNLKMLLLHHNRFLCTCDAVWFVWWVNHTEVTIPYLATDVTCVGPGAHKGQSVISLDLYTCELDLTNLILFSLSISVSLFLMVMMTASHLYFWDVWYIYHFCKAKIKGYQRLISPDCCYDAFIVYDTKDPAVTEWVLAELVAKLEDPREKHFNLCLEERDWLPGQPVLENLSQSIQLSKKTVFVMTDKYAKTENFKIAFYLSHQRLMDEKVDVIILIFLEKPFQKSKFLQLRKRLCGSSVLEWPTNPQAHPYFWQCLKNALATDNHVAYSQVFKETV
Summary of the method: as §1

[4] = HEK-Blue cells overexpressing human TLR9, stimulated with ODN2006 5 nM, read-out: TLR 9 IC50
[5] = HEK-Blue cells overexpressing human TLR9, stimulated with ODN2006 5 nM, 22 hour incubation, reporter readout
[6] = HEK-Blue human TLR9 reporter cells

SMILES	IC50 [1] [nM]	IC50 [1, 4] [nM]	IC50 [2] [nM]	IC50 [3] [nM]	IC50 [1, 5] [nM]	IC50 [1, 6] [nM]
CN(C)C1CCN(Cc2ccc(-c3ccc4nc(-c5ccc(S(C)(=O)=O)cc5F)n(C)c4c3)cc2)CC1 [Example 380, 1-(4-(2-(2-fluoro-4-(methylsulfonyl)phenyl)-1-methyl-1H-benzo[d]imidazol-6-yl)benzyl)-N,N-dimethylpiperidin-4-amine]		174	300	1300	174	
Cc1cc(C2CCN(C3CC4CCC(C3)N4C(C)C)CC2)cc2[nH]c(-c3ccc(S(C)(=O)=O)cc3)nc12 (centres unmarked) [Example 333, 6-(1-(8-isopropyl-8-azabicyclo[3.2.1]octan-3-yl)piperidin-4-yl)-4-methyl-2-(4-(methylsulfonyl)phenyl)-1H-benzo[d]imidazole]		329	> 50000	> 50000		330
COc1ccc(-c2nc3c(C)cc(C4CCN(C5CCN(C(C)C)CC5)CC4)cc3[nH]2)cc1OC [Example 11, 2-(3,4-dimethoxyphenyl)-6-(1′-isopropyl-[1,4′-bipiperidin]-4-yl)-4-methyl-1H-benzo[d]imidazole]			> 50000	5000	33	
COCCN1C2CCC1CC(N1CCC(c3cc(F)c4nc(-c5ccc(S(C)(=O)=O)cc5)n(C)c4c3)CC1)C2 (single isomer, unassigned) [Example 291, 4-fluoro-6-(1-(8-(2-methoxyethyl)-8-azabicyclo[3.2.1]octan-3-yl)piperidin-4-yl)-1-methyl-2-(4-(methylsulfonyl)phenyl)-1H-benzo[d]imidazole]		57	34800	1800		57
Cn1c(-c2ccc(S(C)(=O)=O)cc2)nc2c(F)c(C3CCN(C4CC5CCC(C4)N5CC4COC4)CC3)ccc21 (single isomer, unassigned) [Example 193, 4-fluoro-1-methyl-2-(4-(methylsulfonyl)phenyl)-5-(1-(8-(oxetan-3-ylmethyl)-8-azabicyclo[3.2.1]octan-3-yl)piperidin-4-yl)-1H-benzo[d]imidazole]	82	82	> 50000	> 50000		
CC(C)N1C2CCC1CC(N1CCC(c3ccc4c(nc(-c5ccc(S(C)(=O)=O)cc5)n4C)c3F)CC1)C2 (single isomer, unassigned) [Example 90, 4-fluoro-5-(1-(8-isopropyl-8-azabicyclo[3.2.1]octan-3-yl)piperidin-4-yl)-1-methyl-2-(4-(methylsulfonyl)phenyl)-1H-benzo[d]imidazole]		231	> 50000	> 50000	230	

Second part, the molecule after the results:

IC50 [1] [nM]	IC50 [1, 4] [nM]	IC50 [2] [nM]	IC50 [3] [nM]	IC50 [1, 5] [nM]	IC50 [1, 6] [nM]	SMILES
480	480	> 50000	> 50000			Cc1cc(-c2ccc(N3CCN(C4CCC4)CC3)cc2)cc2c1nc(-c1ccc(S(C)(=O)=O)cc1)n2C [Example 174, 6-(4-(4-cyclobutylpiperazin-1-yl)phenyl)-1,4-dimethyl-2-(4-(methylsulfonyl)phenyl)-1H-benzo[d]imidazole]
	97	2700	1000	97		Cc1cc(-c2ccc(CN3CC4(C3)CN(C(C)C)C4)cc2)cc2c1nc(-c1ccc(S(C)(=O)=O)cc1)n2C [Example 399, 6-(4-((6-isopropyl-2,6-diazaspiro[3.3]heptan-2-yl)methyl)phenyl)-1,4-dimethyl-2-(4-(methylsulfonyl)phenyl)-1H-benzo[d]imidazole]
		> 50000	25500	95		CC(C)N1CCC(N2CCC(c3cc(F)c4nc(-c5ccc(S(C)(=O)=O)cc5)n(C)c4c3)CC2)CC1 [Example 105, 4-fluoro-6-(1′-isopropyl-[1,4′-bipiperidin]-4-yl)-1-methyl-2-(4-(methylsulfonyl)phenyl)-1H-benzo[d]imidazole]
440	441	> 50000	> 50000			COCCN1CCC(N2CCC(c3ccc4c(nc(-c5ccc(S(C)(=O)=O)cc5)n4C)c3F)CC2)CC1 [Example 188, 4-fluoro-5-(1′-(2-methoxyethyl)-[1,4′-bipiperidin]-4-yl)-1-methyl-2-(4-(methylsulfonyl)phenyl)-1H-benzo[d]imidazole]
